Patent publication US10543198B2 (Celgene Quanticel Research, Inc., priority 2014, dated 2020)

Biological target: full-length human LSD1 (Homo sapiens (Human), UniProt O60341)
Test: In Vitro Enzyme Inhibition Assay - LSD-1 (TR-FRET)
Type: biochemical
Conditions: 0.1 nM LSD1, H3K4me1-biotin peptide
Method: This assay determines the ability of a test compound to inhibit LSD1 demethylase activity.
The enzymatic assay of LSD1 activity is based on Time Resolved-Fluorescence Resonance Energy Transfer (TR-FRET) detection.
The ability of the compounds disclosed herein to inhibit LSD1 activity was quantified and the respective IC50 value was determined.

SMILES | IC50
Cc1ccc(-c2cnc(NC[C@H]3CCNC3)nc2-c2ccc(C#N)cc2)cc1 [Example 16, 4-[5-(4-methylphenyl)-2-{[(3S)-pyrrolidin-3-ylmethyl]amino}pyrimidin-4-yl]benzonitrile] | < 100 nM
Cc1ccc(-c2cnc(NC3CCCNC3)nc2-c2ccc(C#N)cc2)cc1 (racemic) [Example 29, (±)-4-[5-(4-methylphenyl)-2-[(piperidin-3-yl)amino]pyrimidin-4-yl]benzonitrile] | < 100 nM
Cc1ccc(-c2cnc(N3CCC4(CCNC4)C3)nc2-c2ccc(C#N)cc2)cc1 (stereo not shown) [Example 35, 4-(2-{2,7-diazaspiro[4.4]nonan-2-yl}-5-(4-methylphenyl)pyrimidin-4-yl)benzonitrile] | < 100 nM
Cc1ccc(-c2nc3ccn(C[C@@H]4CCNC4)c3cc2-c2ccc(C#N)cc2)cc1 [Example 1, 4-[5-(4-methylphenyl)-1-[[(3R)-pyrrolidin-3-yl]methyl]pyrrolo[3,2-b]pyridin-6-yl]benzonitrile] | < 100 nM
Cc1ccc(-c2nc3cnn(C[C@H]4[C@@H]5CNC[C@@H]54)c3cc2-c2ccc(C#N)cc2)cc1 [Example 15, 4-[1-[[(1S,5R)-3-azabicyclo[3.1.0]hexan-6-yl]methyl]-5-(4-methylphenyl)pyrazolo[4,3-b]pyridin-6-yl]benzonitrile] | < 100 nM
Cc1ccc(-c2cnc(N3CCC4(CCNC4)CC3)nc2-c2ccc(C#N)cc2)cc1 [Example 39, 4-(2-{2,8-diazaspiro[4.5]decan-8-yl}-5-(4-methylphenyl)pyrimidin-4-yl)benzonitrile] | < 100 nM
N#Cc1ccc(-c2nc(NC[C@H]3CCNC3)ncc2-c2ccc(Cl)cc2)cc1 [Example 19, 4-[5-(4-chlorophenyl)-2-{[(3S)-pyrrolidin-3-ylmethyl]amino}pyrimidin-4-yl]benzonitrile] | < 100 nM
Cc1ccc(-c2nc3ccn(C[C@H]4CNCCO4)c3cc2-c2ccc(C#N)cc2)cc1 [Example 10, 4-[5-(4-methylphenyl)-1-[[(2R)-morpholin-2-yl]methyl]pyrrolo[3,2-b]pyridin-6-yl]benzonitrile] | < 100 nM
Cc1ccc(-c2cnc(NCC3CCNCC3)nc2-c2ccc(C#N)cc2)cc1 [Example 32, 4-[5-(4-methylphenyl)-2-[(piperidin-4-ylmethyl)amino]pyrimidin-4-yl]benzonitrile] | < 100 nM
Cc1ccc(-c2cnc(N3C[C@H]4CNC[C@H]4C3)nc2-c2ccc(C#N)cc2)cc1 [Example 21, 4-{2-[(3aR,6aS)-octahydropyrrolo[3,4-c]pyrrol-2-yl]-5-(4-methylphenyl)pyrimidin-4-yl}benzonitrile] | < 100 nM
N#Cc1ccc(-c2cc3c(ccn3C[C@@H]3CCNC3)nc2Cl)cc1 [Example 2, 4-[5-chloro-1-[[(3R)-pyrrolidin-3-yl]methyl]pyrrolo[3,2-b]pyridin-6-yl]benzonitrile] | 100 to 1000 nM
Cc1ccc(-c2nc3cnn(CC4CCNCC4)c3cc2-c2ccc(C#N)cc2)cc1 [Example 14, 4-[5-(4-methylphenyl)-1-(piperidin-4-ylmethyl)pyrazolo[4,3-b]pyridin-6-yl]benzonitrile] | < 100 nM
N#Cc1ccc(-c2nc(N3CC[C@@H]4CNC[C@@H]4CC3)ncc2-c2ccc(F)cc2)cc1 [Example 24, 4-{2-[(3aR,8aS)-decahydropyrrolo[3,4-d]azepin-6-yl]-5-(4-fluorophenyl)pyrimidin-4-yl}benzonitrile] | < 100 nM
N#Cc1ccc(-c2nc(NC[C@H]3CCNC3)ncc2-c2ccc(F)cc2)cc1 [Example 18, 4-[5-(4-fluorophenyl)-2-{[(3S)-pyrrolidin-3-ylmethyl]amino}pyrimidin-4-yl]benzonitrile] | < 100 nM
N#Cc1ccc(-c2cc3c(ccn3C[C@H]3CNCCO3)nc2-c2ccc(F)cc2)cc1 [Example 11, 4-[5-(4-fluorophenyl)-1-[[(2R)-morpholin-2-yl]methyl]pyrrolo[3,2-b]pyridin-6-yl]benzonitrile] | < 100 nM
Cc1ccc(-c2cc(NC[C@H]3CCNC3)nn2-c2ccc(C#N)cc2)cc1 [Example 44, 4-[5-(4-methylphenyl)-3-[[(3S)-pyrrolidin-3-yl]methylamino]pyrazol-1-yl]benzonitrile] | < 100 nM
Cc1ccc(-c2cnc(N3CCC4CNCC4C3)nc2-c2ccc(C#N)cc2)cc1 (stereo not shown) [Example 22, 4-[5-(4-methylphenyl)-2-{octahydro-1H-pyrrolo[3,4-c]pyridin-5-yl}pyrimidin-4-yl]benzonitrile] | < 100 nM
N#Cc1ccc(-c2nc(NC[C@H]3CCNC3)ncc2C#CC2CC2)cc1 [Example 26, 4-[5-(2-cyclopropylethynyl)-2-{[(3S)-pyrrolidin-3-ylmethyl]amino}pyrimidin-4-yl]benzonitrile] | < 100 nM
N#Cc1ccc(-c2cc3c(ccn3C[C@H]3CCNC3)nc2N2CCOCC2)cc1 [Example 7, 4-[5-morpholin-4-yl-1-[[(3S)-pyrrolidin-3-yl]methyl]pyrrolo[3,2-b]pyridin-6-yl]benzonitrile] | < 100 nM
Cc1ccc(-c2cc(NCC3CCNC3)nn2-c2ccc(C#N)cc2)cc1 (stereo not shown) [Example 43, 4-[5-(4-methylphenyl)-3-(pyrrolidin-3-ylmethylamino)pyrazol-1-yl]benzonitrile] | < 100 nM
Cc1ccc(-c2cc(NCC3CCNCC3)nn2-c2ccc(C#N)cc2)cc1 [Example 46, 4-[5-(4-methylphenyl)-3-(piperidin-4-ylmethylamino)pyrazol-1-yl]benzonitrile] | < 100 nM
Cc1ccc(-c2cnc(N3CCC4(CCNCC4)C3)nc2-c2ccc(C#N)cc2)cc1 [Example 36, 4-(2-{2,8-diazaspiro[4.5]decan-2-yl}-5-(4-methylphenyl)pyrimidin-4-yl)benzonitrile] | < 100 nM
Cc1ccc(-c2nc3cnn(CC4CCNC4)c3cc2-c2ccc(C#N)cc2)cc1 (stereo not shown) [Example 13, 4-[5-(4-methylphenyl)-1-(pyrrolidin-3-ylmethyl)pyrazolo[4,3-b]pyridin-6-yl]benzonitrile] | < 100 nM
N#Cc1ccc(-c2nc(NC[C@H]3CCNC3)ncc2-c2ccc(C(F)(F)F)cc2)cc1 [Example 25, 4-(2-{[(3S)-pyrrolidin-3-ylmethyl]amino}-5-[4-(trifluoromethyl)phenyl]pyrimidin-4-yl)benzonitrile] | < 100 nM
Cc1ccc(-c2cnc(NC3CCNCC3)nc2-c2ccc(C#N)cc2)cc1 [Example 30, 4-[5-(4-methylphenyl)-2-[(piperidin-4-yl)amino]pyrimidin-4-yl]benzonitrile] | < 100 nM
Cc1ccc(-c2cnc(NCC3(F)CCNC3)nc2-c2ccc(C#N)cc2)cc1 (racemic) [Example 28, (±)-4-(2-{[(3-fluoropyrrolidin-3-yl)methyl]amino}-5-(4-methylphenyl)pyrimidin-4-yl)benzonitrile] | < 100 nM
Cc1ccc(-c2cnc(N3CCC4(CCCN4)CC3)nc2-c2ccc(C#N)cc2)cc1 [Example 40, 4-(2-{1,8-diazaspiro[4.5]decan-8-yl}-5-(4-methylphenyl)pyrimidin-4-yl)benzonitrile] | < 100 nM
Cc1ccc(-c2cnc(N3CC[C@@H]4CNC[C@@H]4CC3)nc2-c2ccc(C#N)cc2)cc1 [Example 23, 4-{2-[(3aR,8aS)-decahydropyrrolo[3,4-d]azepin-6-yl]-5-(4-methylphenyl)pyrimidin-4-yl}benzonitrile] | < 100 nM
